# Measurements published in patent US6972287B1, “Method of inhibiting amyloid protein aggregation and imaging amyloid deposits” (Pfizer Inc., priority 1999, dated 2005).
# Values joined by “and” are separate entries in the source; they are usually repeats but may differ in a detail not shown here. Equal entries are not always repeated. Structures can show the parent of a compound that is named as a salt.
# Columns and labels:
# Assay type in all cases: biochemical
# Aβ(1-40) [1] = biological target: T1, Aβ(1-40) (Homo sapiens, UniProt P05067); experiment: BASSR (Beta-Amyloid Self-Seeding Radioassay), inhibitors of self-seeded amyloid fibril growth; details: 30 μM soluble Aβ(1-40) + 125I-labeled Aβ(1-40), 37° C., 3 to 5 hours; replicate values; letter = synthetic lot; ppt = precipitate; V-shaped = inhibition followed by precipitation
# T1 construct: […]; purchased Bachem, Torrance, Calif
# Protocol: BASSR (Beta-Amyloid Self-Seeding Radioassay)
# (§1) An assay for inhibitors of self-seeded amyloid fibril growth
# Assay Buffer—50 mM sodium phosphate, pH 7.5, 100 mM NaCl, 0.02% NaN3, 1 M urea (filter and store at 4° C.).
# (§2) Typically, the solution should be stored until no lag phase is seen in the assay.
# ^125I-labeled Aβ(1-40)—150K-350K cpm/μL in 100% acetonitrile—0.1% trifluoroacetic acid (TFA)—1% β-mercaptoethanol (aliquots stored at −20° C.). ^125I-labeled Aβ(1-40) can be made in accordance with the procedure set forth by H. LeVine, III in Neurobiol. Aging, 16, 755, (1995), which is hereby incorporated by reference, or this reagent may be purchased from Amersham, Arlington Heights, Ill.
# The following are the amounts of the components of the reaction mixture sufficient for 50 assay wells:
# • 1) Prepare reaction mixture above by mixing components and storing on ice. • 2) Pipet 14.5 μL of reaction mixture into each of 50 wells on a polypropylene U-bottom 96-well microtiter plate on ice. (Costar 3794). • 3) Add 1.7 μL of diluted compound to be tested to each well in a column of eight, including solvent control. Serial 3-fold dilutions from 1 mM (100 μM final) in assay buffer−urea=7 dilutions+zero. Each 96-well plate can therefore accommodate 11 samples+1 Congo Red control (0.039-5 μM final in 2-fold steps). • 4) Seal the plate with aluminum film (Beckman 538619) and incubate for 10 minutes on ice. • 5) Raise the temperature to 37° C. and incubate for 3 to 5 hours (depending on the lot of the peptide). • 6) Remove the aluminum film and add 200 μL/well of ice cold assay buffer with urea, collecting the radiolabeled fibrils by vacuum filtration through 0.2 μm pore size GVWP filters in 96-well plates (Millipore MAGV N22, Bedford, Mass.). Determine the radioactivity of the filters using standard methods well-known to those skilled in the art. BASST (Beta-Amyloid Self-Seeding, Thioflavin T)
# Aβ(1-40) [2] = biological target: T1, Aβ(1-40); experiment: BASST (Beta-Amyloid Self-Seeding, Thioflavin T), inhibitors of self-seeded amyloid fibril growth
# Protocol: as §1
# Assay Buffer—50 mM sodium phosphate, pH 7.5, 100 mM NaCl, 0.02% NaN3, 1 M urea (filter and store at 4° C.)
# as §2
# The following are the amounts of the components of the reaction mixture that result in each of the 50 assay wells:
# • 1) Prepare the reaction mix above by mixing the components and storing on ice. • 2) Pipet 14.5 μL of reaction mixture into each of 50 wells of a polystyrene U-bottom 96-well microtiter plate (Corning 25881-96) on ice. • 3) Add 1.7 μL of diluted compound to be tested to each well in a column of eight, including solvent control. Serial 3-fold dilutions from 1 mM (100 μM final) in assay buffer−urea=7 dilutions+zero. Each 96-well plate can therefore accommodate 11 samples+1 Congo Red control (0.039-5 μM final in 2-fold steps). • 4) Seal the plate with aluminum film and incubate for 10 minutes on ice. • 5) Raise the temperature to 37° C. and incubate for 3 to 5 hours (depends on the lot of the peptide). • 6) Remove the aluminum film and add 250 μL/well of 5 μM thioflavin T (ThT) [T-3516, Sigma-Aldrich] in 50 mM glycine-NaOH, pH 8.5. Read fluorescence on a plate reader (ex=440 nm/20 nm; em=485 nm/20 nm) within 5 minutes. BAPA (Beta-Amyloid Peptide Aggregation)
# Aβ (1-42) = biological target: T2, Aβ (1-42) (Homo sapiens, UniProt P05067); experiment: BATYM assay (Aβ (1-42) aggregation, Thioflavin T fluorescence); details: Aβ 1-42 final concentration 100 μM, 37° C., 1 day, letter = synthetic lot
# T2 construct: Required Aβ (1-42) (California Peptide) was dried from its hexafluoroisopropanol (HFIP) stock solution; purchased California Peptide
# Protocol: Required Aβ (1-42) (California Peptide) was dried from its hexafluoroisopropanol (HFIP) stock solution. The Aβ (1-42) was dissolved in dimethylsulfoxide (DMSO) and then mixed with phosphate buffered saline (PBS) (pH 7.4). The mixed Aβ (1-42) solution was filtered with a 0.2 μm Omnipore membrane syringe filter Millipore, Bedford, Mass.). The compound to be tested in DMSO (50 times concentrate) was put into each well (0.5 μL/well) of a 96-well plate. The Aβ (1-42) solution was added into each well (24.5 μL/well). The plate was centrifuged at 1,000 g for 5 minutes and incubated at 37° C. for 1 day (Aβ 1-42; final concentration 100 μM).
# After incubation Thioflavin T (ThT) (30 μM) solution in glycine-NaOH buffer (pH 8.5, 50 mM) was added into each well (250 μL/well), fluorescence was measured (ex=440/20 nm, em=485/20 nm) using a fluorescence plate reader. The inhibitory activity was calculated as the reduction of fluorescence with the following formula: Inhibition (%)={(F(Aβ)−F(Aβ+compound)}/{F(Aβ)−[…]}×100
# The IC50s were calculated by a curve fitting program using the following equation. The data were obtained from two different experiments in triplicate.
# x=Concentration of tested compound (M),
# Aβ (1-40) peptide = biological target: T3, Aβ (1-40) peptide (Homo sapiens, UniProt P05067); experiment: BAPA (Beta-Amyloid Peptide Aggregation, pH 6.0, filtration); details: Aβ (1-40) 33 μM, pH 6.0, 2 to 4 hours at room temperature; replicate values; letter = synthetic lot
# T3 construct: 10 μL 0.5 mg/mL Aβ (1-40) peptide in 20% HFIP
# Protocol: Each 96-well plate can therefore accommodate 11 samples+1 Congo Red control (0.039-5 μM final in 2-fold steps). • 4) Seal the plate with aluminum film and incubate for 10 minutes on ice. • 5) Raise the temperature to 37° C. and incubate for 3 to 5 hours (depends on the lot of the peptide). • 6) Remove the aluminum film and add 250 μL/well of 5 μM thioflavin T (ThT) [T-3516, Sigma-Aldrich] in 50 mM glycine-NaOH, pH 8.5. […] The purpose of this assays is to provide a higher volume method of assaying the amount of beta amyloid aggregation using an endpoint assay based on filtration. In this assay, hexafluoroisopropanol (HFIP) is used to break down the initial amyloid peptide to a monomer state and use a concentration of 33 μM which is high enough so that aggregation will occur at pH 6.0 in several hours. Methods: […] Then, we incubate for 2 to 4 hours at room temperature. […] We wash the filter plate with 100 μL of the same phosphate buffer. Aggregation was detected on a Microbeta counter after impregnating the filters with Meltilex (1450-441) and is corrected for background.
# [3] = 30 μM soluble Aβ(1-40), 37° C., 3 to 5 hours, thioflavin T fluorescence, replicate values, letter = synthetic lot, read-out: BASST (IC50 = μM)
# T2 sequence (P05067 672-713 limits assumed): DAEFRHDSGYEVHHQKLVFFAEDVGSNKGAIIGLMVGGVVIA
# T3 sequence (P05067 672-711 limits assumed): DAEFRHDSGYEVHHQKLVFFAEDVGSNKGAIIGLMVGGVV
# T1 sequence (P05067 672-711 limits assumed): as above
SMILES,IC50 (Aβ(1-40) [1]),IC50 (Aβ(1-40) [2]; [3]),IC50 (Aβ (1-42)),IC50 (Aβ (1-40) peptide),IC50 (Aβ(1-40) [2]; BASST (IC50 = μM))
"O=C(O)c1ccccc1Nc1ccc(CCc2cc(O)c(O)c(O)c2)cc1 [Example 6, 2-{4-[2-(3,4,5-Trihydroxy-phenyl)-ethyl]phenylamino}benzoic acid]",15 µM and 21 µM and 20 µM and 40 µM,4 µM and 1 µM and 3 µM,21.5 µM,> 60 µM,–
"CCN(CC)c1cccc(CCCc2ccc(Nc3ccccc3C(=O)O)cc2)c1 [Example 32, 2-{4-[3-(3-Diethylaminophenyl)propyl]phenylamino}benzoic acid]",> 100 µM,1 µM,29.2 µM,96 µM,–
"CCCCN(CCCC)c1cccc(CCCc2ccc(Nc3ccccc3C(=O)O)cc2)c1 [Example 45, 2-{4-[3-(3-Dibutylaminophenyl)propyl]phenylamino}benzoic acid]",> 100 µM,1 µM,21.5 µM,32 µM,–
"O=C(NS(=O)(=O)c1ccccc1)c1ccccc1Nc1ccc(CCCc2ccc(Cl)c(Cl)c2)cc1 [Example 142, N-(2-{4-[3-(3,4-Dichloro-phenyl)propyl]-phenylamino}-benzoyl)-benzenesulfonamide]",> 100 µM,2.1 µM,26.9 µM,55 µM,–
"Nc1ccc(CCCc2ccc(Nc3ccccc3C(=O)O)cc2)cc1 [Example 22, 2-{4-[3-(4-Aminophenyl)propyl]phenylamino}benzoic acid]",3 µM,9 µM,> 100 µM,24 µM,–
"O=C(O)c1ccccc1Nc1ccc(CCc2ccc(Cl)c(Cl)c2)cc1 [Example 117, 2-{4-[2-(3,4-Dichloro-phenyl)-ethyl]-phenylamino}-benzoic acid monosodium]",> 100 µM,3 µM,61.3 µM,> 100 µM,–
"O=C(O)c1cccc(C(F)(F)F)c1Nc1ccc(CCc2ccc(Cl)c(Cl)c2)cc1 [Example 146, 2-{4-[2-(3,4-Dichloro-phenyl)-ethyl]-phenylamino}-3-trifluoromethyl-benzoic acid]",> 100 µM,30 µM,> 100 µM,> 60 µM,–
"CCCN(CCC)c1ccc(CCCc2ccc(Nc3ccccc3C(=O)O)cc2)cc1 [Example 43, 2-{4-[3-(4-Dipropylaminophenyl)propyl]phenylamino}benzoic acid]",> 100 µM,0.3 µM,24.2 µM,63 µM,–
"CCCCN(CCCC)c1ccc(Nc2ccc(CCc3ccc(Cl)c(Cl)c3)cc2)c(C(=O)O)c1 [Example 150, 5-Dibutylamino-2-{4-[2-(3,4-dichloro-phenyl)-ethyl]-phenylamino}-benzoic acid]",> 100 µM,10 µM,> 100 µM,76 µM,–
"CCN(CC)c1ccc(CCc2ccc(Nc3ccccc3C(=O)O)cc2)cc1 [Example 26, 2-{4-[2-(4-Diethylaminophenyl)ethyl]phenylamino}benzoic acid monohydrochloride monohydrate]",–,–,> 100 µM,57 µM,1 µM
"O=C(O)c1cc([N+](=O)[O-])ccc1Nc1ccc(CCCCc2ccc(Cl)c(Cl)c2)cc1 [Example 11, 2-{4-[4-(3,4-Dichloro-phenyl)-butyl]-phenylamino}-5-nitro-benzoic acid]",18 µM and 20 µM (2×) and > 100 µM (2×) and 21 µM and 30 µM,1 µM (3×) and 3 µM and 800 nM,5.62 µM and 6.78 µM,23 µM and 9 µM,–
COc1cc(Nc2ccc(CCCc3ccc(Cl)c(Cl)c3)cc2)c(C(=O)O)cc1[N+](=O)[O-] [Example 7],18 µM and 13 µM and 12 µM and 20 µM,2 µM,8.83 µM,39 µM,–
"O=C(O)c1ccccc1Nc1ccc(CCc2ccc(Nc3ccccc3C(=O)O)cc2)cc1 [Example 136, 2-{4-[2-(4-{2-Hydroxycarbonylphenylamino}phenyl)ethyl]-phenylamino}-benzoic acid]",> 100 µM,3 µM,> 100 µM,53 µM,–
"O=C(NS(=O)(=O)C(F)(F)F)c1ccccc1Nc1ccc(CCCc2ccc(Cl)c(Cl)c2)cc1 [Example 141, N-(2-{4-[3-(3,4-Dichloro-phenyl)-propyl]-phenylamino}-benzoyl)-C,C,C,-trifluoro-methanesulfonamide]",> 100 µM,7 µM,56.7 µM,> 50 µM,–
"O=C(O)c1ccccc1Nc1ccc(CCCCc2ccc(Cl)c(Cl)c2)cc1 [Example 10, 2-{4-[4-(3,4-Dichlorophenyl)butyl]phenylamino}benzoic acid]",70 µM and 50 µM,4 µM,75.7 µM,67 µM,–
"CN(C)c1ccc(CCCc2ccc(Nc3ccccc3C(=O)O)cc2)cc1 [Example 34, 2-{4-[3-(4-Dimethylaminophenyl)propyl]phenylamino}benzoic acid]",45 µM,3 µM,45 µM,48 µM,–
"CCCN(CCC)c1ccc(Nc2ccc(CCc3ccc(Cl)c(Cl)c3)cc2)c(C(=O)O)c1 [Example 149, 2-{4-[2-(3,4-Dichlorophenyl)-ethyl]-phenylamino}-5-dipropylamino-benzoic acid]",> 100 µM,> 100 µM,> 100 µM,> 60 µM,–
"O=C(O)c1cc([N+](=O)[O-])cc([N+](=O)[O-])c1Nc1ccc(CCCCc2ccc(Cl)c(Cl)c2)cc1 [Example 12, 2-{4-[4-(3,4-Dichlorophenyl)butyl]phenylamino}-3,5-dinitrobenzoic acid]",20 µM,1 µM,3.93 µM,> 60 µM,–
